According to US5905036A, “Characterization of organic contaminants and assessment of remediation performance in subsurface formations” (Board Of Regents, The University of Texas System, priority 1997, dated 1999):
“Also recorded” adds a separate entry of the source. Where two headings read alike, the source gives them in different places.

What was measured:
[1] = Tracer injection into uncontaminated secondary column (Example 3); format: physicochemical; conditions: for adsorption: inferred; for mean residence time: method of moments
Protocol: A secondary, uncontaminated column was packed and configured in the same manner as the contaminated column. The only modification made to this column was that the volume of water was equal to the volume of water plus TCE in the primary column. This secondary column was used to observe tracer behavior in an uncontaminated environment.
Before tracer injection began in the primary column, argon and C6 F12 were injected into the secondary column. Their breakthrough curves are plotted in FIG. 3. Using this procedure, the gas saturation in the secondary column would be similar to that in the primary column. The secondary column was first allowed to equilibrate. […] The C6 F12 was injected as a liquid through the heated injection port. The injector temperature was 40° C.; the liquid was vaporized and moved through the column as a gas. […] When mixed with air, however, they become gases.
The mean residence times should be equal since there is no TCE for the tracer to partition into. […] The flatness of the peak is believed to be a result of the fact that the liquid vaporizes slowly.

[2] = Partitioning tracer column experiment, Ottawa sand contaminated with TCE, air carrier (Example 3); conditions: for Mean Residence Times ti / Mean Residence Times ti (cc) / Activity Coefficient, γi: 0.45 cc/min; for Activity Coefficient, γi: in TCE, ideal Ki / experimental Ki; for partitioning into TCE (in words): Ottawa sand column
Protocol: Three columns were prepared for each experiment: (1) a contaminated primary column (2.5 cm×30 cm) saturated with residual water and TCE; (2) a contaminated pre-column (2.5 cm×60 cm) saturated with water and TCE; and (3) an uncontaminated secondary column (2.5 cm×30 cm) saturated only with water.
The primary column was mounted in a vertical configuration and a burette with 100 cc of deionized water was mounted above the column and attached to the inlet. The valve on the burette was opened and water was allowed to gravity drain into the column. After approximately one pore volume of water had entered the column, the burette was disconnected and the column was allowed to continue to gravity drain. Air was flushed through the column to displace any mobile water. The difference between the water injected and the water produced was used to determine the residual water saturation.
Next, approximately 5 cc of TCE, enough to produce a residual saturation, was injected into the primary column using a syringe and allowed to gravity drain. After draining overnight, the column was weighed for a more accurate estimate of TCE saturation. […] In both cases, water and TCE injection, the pre-column was treated in the same manner. However, larger amounts of water and TCE were injected since the pre-column is twice as large.
The primary column and pre-column were plumbed into the flowpath. Air flow was through the precolumn, past the reference side of the thermal conductivity detector (TCD), to the test column and then to the measurement side of the TCD. Two injectors, one for the gas tracers (Valco Instruments'switching valve with sample loop) and one for liquid tracers (heated injection port) were located between the reference side of the TCD and the test column. Flow rates were adjusted by the use of a snubber valve located between the precolumn and TCD. Flow rates were monitored and measured by a combination of rotameters and a bubble meter. The TCD measures the difference between the reference stream and the effluent of the test column. Additionally, water-filled manometers were affixed to each end of the column to measure pressure drops across the column.
Approximately 4 to 8 hours was required for the air stream to equilibrate and for a stable baseline to be established. When the baseline was stable, tracer injections began. Data collected from the TCD were integrated and the integration values stored to computer files data acquisition software.
After the uncontaminated column experiment had been completed, the contaminated column experiments were begun. […] The mean residence time for production of each tracer was calculated from the response curves using the method of moments. This value can be expressed in minutes or converted to volume units by multiplying by the flow rate.

[3] = cited from earlier work
[4] = Batch equilibrium measurement of the partition coefficient with TCE; format: physicochemical
Text: Since a rate dependence was observed, the rate was lowered to 0.08 cc/min and the experiment repeated for C4 F8. In addition, a batch equilibrium measurement of the partition coefficient was made for this tracer. […] The residence time at 0.45 cc/min is about two hours and several times this may be required for equilibrium partitioning. As the partition coefficient increases, so does the residence time, so the heavier tracers should be less effected by nonequilibrium partitioning. In any case, once suitable tracers have been identified, as has been done here, either batch experiments or experiments at low rates or in longer columns (to give long residence times) can be conducted to determine the equilibrium partitioning coefficients needed for field application (assuming the residence time for the field test is long compared to the column test).

[5] = Partitioning tracer column experiment, field soil contaminated with TCE; format: physicochemical; conditions: for Activity Coefficient, γi, in field soil: field soil contaminated with TCE
[6] = Partitioning tracer column experiment after surfactant remediation of the sand (Example 2); format: physicochemical; conditions: no NAPL present
Text: The contaminated sand from Example 1 was cleaned by flushing the sand with an aqueous solution of surfactant until all the trichloroethene was removed to thereby simulate a successful remediation. The procedure of Example 1 was then repeated.

[7] = Partitioning tracer column experiment, PCE-contaminated water-saturated Ottawa sand (Example 1); format: physicochemical; conditions: water-saturated sand with residual PCE
Protocol: A soil column experiment was performed to illustrate the use of partitioning tracers to detect DNAPL in a saturated zone. A Kontes preparative chromatography column made of borosilicate glass (4.8 cm ID) was packed with-mesh sizes of 60 to 200 Ottawa sand and saturated with water at 23° C. The length of this sandpack was 12.24 cm. The porosity and intrinsic permeability to water were measured and found to be 0.329 and 5.84 Darcy, respectively. […] Two alcohol tracers were added to the water and 0.52 pore volumes of water containing these tracers were injected at 0.316 ml/min followed by several more pore volumes of water until the alcohols could no longer be detected in the effluent. […] The partition coefficients of each of these alcohols were determined by equilibrating samples containing in the range of 100 to 1,000 mg/l of both alcohols with equal volumes of water and PCE and measuring the alcohol concentrations in each phase using a gas chromatograph. […]
The separation of the two curves gives an unmistakable signal that the sand is contaminated with PCE. […] This value agrees with the value measured from a mass balance on the PCE within the experimental error of each of the measurements. The tracer curves were then numerically simulated using this value and the measured partition coefficients and these are the curves shown in FIG. 1. […]

[8] = water; cited from earlier work

| Compound | Mean Residence Times ti ([2]; Ottawa sand, TCE) | Mean Residence Times ti (cc) ([2]; Ottawa sand, TCE) | Activity Coefficient, γi ([2]; Ottawa sand) | Activity Coefficient, γi, in field soil [5] | Vapor Press ([3]; @ 25 ° C.) | also measured |
| --- | --- | --- | --- | --- | --- | --- |
| [Ar] [Argon] | 93.2 min | 41.9 cc | – | – | – | adsorption [1]: negligible; mean residence time [1]: 45 cc |
| FC1(F)C(F)(F)C(F)(F)C1(F)F [C4 F8, Octafluorocyclobutane] | 131.4 min | 59.1 cc | 26.6 | 20.8 | – | Vapor Press ([3]; @ 21 ° C.): 40 psi; partition coefficient at 0.08 cc/min ([2]; 0.08 cc/min, Ottawa sand, TCE): about 4.7; partition coefficient, batch equilibrium [4]: about 4.7 |
| FC1=C(F)C(F)(F)C(F)(F)C1(F)F [C5 F8, Octafluorocyclopentene] | 235.0 min | 105.8 cc | 20.3 | 17.2 | 12.7 psi | – |
| FC(F)(F)C1(F)C(F)(F)C(F)(F)C(F)(F)C(F)(F)C1(F)F [C7 F14, perfluoromethylcyclohexane] | 362.6 min | 163.2 cc | 58.3 | 52.6 | 2.1 psi | – |
| FC(F)(F)C1(F)C(F)(F)C(F)(F)C(F)(F)C(F)(C(F)(F)F)C1(F)F (stereo not shown) [C8 F16, perfluoro-1,3-dimethylcyclohexane] | 1055.0 min | 474.8 cc | 63.1 | 89.7 | 0.67 psi | – |
| FC(F)(F)F [CF4, Carbon Tetrafluoride] | 95.1 min | 42.8 cc | – | – | – | partitioning into TCE (in words) [2]: essentially zero; also recorded: negligible partitioning; partitioning into TCE in field soil (in words) ([5]; field soil): negligible partitioning |
| CC(C)C(C)(C)O [DMB, 2,3dimethyl 2-butanol] | – | – | – | – | – | tracer travel after remediation (in words) [6]: travel through the sand at the same rate; partitioning / retardation in PCE-contaminated column [7]: retarded relative to the IPA |
| FS(F)(F)(F)(F)F [SF6, Sulfur Hexafluoride] | 103.7 min | 46.7 cc | 11.6 | 17.2 | – | Vapor Press ([3]; @ 21 ° C.): 334 psi; partitioning into TCE (in words) [2]: small but experimentally significant partitioning |
| ClC=C(Cl)Cl [TCE, trichloroethylene] | – | – | – | – | – | vapor pressure ([3]; 20° C.): 1.16 psi; aqueous solubility [8]: 1385 milligrams/liter |
| [3H]O[3H] [tritiated water] | – | – | – | – | – | partitioning / retardation in PCE-contaminated column [7]: does not partition |
| dodecafluorodimethylcyclobutane [C6 F12] | 204.4 min | 92.0 cc | 52.0 | 45 | 7.2 psi | adsorption [1]: negligible; mean residence time [1]: 45 cc; factor by which mean residence time differs from argon ([2]; primary column, TCE, Ottawa sand): more than two |
